Test results taken from patent publication US20230149448A1, “METHODS FOR PREVENTING AND TREATING R[…] MODIFICATION OF VIRUS RECEPTOR BINDING DOMAINS USING […]” (priority 2021, published 2023).

Columns and labels:
SARS-CoV-2 [1] = type: cell-based
[2] = molecular target: receptor binding domain (RBD) of Spike S protein (Severe acute respiratory syndrome coronavirus 2, UniProt P0DTC2); assay: Exposure of Spike protein, capture/detection by RBD-specific antibodies (96 well, HRP); parameters: species or system SARS-CoV-2; conditions: 150 ppm, 5 minutes exposure
human subjects = assay: Safety of microaerosolized HOCl inhalation in human volunteers; type: in vivo; conditions: dense microaerosols for 2-5 minutes, 400 episodes
Procedure: The safety of exposure of human subjects to microaerosolized pure stable HOCl of the present disclosure via the respiratory route was evaluated.
Human volunteers were exposed to dense microaerosols of HOCl for periods of 2-5 minutes and submitted subjective reports of the outcomes of these experiences. Data on a total of 400 such episodes were collected under medical supervision.

SARS-CoV-2 [3] = type: cell-based; remark: listed apart in the source

SMILES | average reductions in infectivity (positive control) (SARS-CoV-2 [1]) | inhibition of chromophore formation (S protein remaining bound by RBD specific antibodies) [2] | average reductions in infectivity (SARS-CoV-2 [1]) | serious adverse effects (human subjects) | minor complaints (nose irritation, slight impact on ease of deep breathing) (human subjects; disappeared upon cessation of exposure) | average reduction in titer (SARS-CoV-2 [3])
CCO [45% ethanol, ethanol, reference compound] | 99.98% | – | – | – | – | –
OBr [HOBr, hypobromous acid] | – | complete inhibition | – | – | – | –
OCl [HOCl, hypochlorous acid] | – | complete inhibition | 99.92% | No serious adverse effects | approximately 3% | 99.96%
